{"source": "patent US20250122253A1", "about": "“REGULATING MICROTUBULE DYNAMICS AS A THERAPEUTIC TARGET FOR NERVE REPAIR” (City University of Hong Kong, priority 2023, published 2025)", "key": {"[1]": {"tested_on": "SCG10-positive regenerating axons of sciatic nerve", "experiment": "Quantification of in vivo axon regeneration by SCG10 immunostaining (regeneration index)", "design": "species or system mice", "settings": "3 days post-injury", "protocol": "Mice were perfused transcardially with 4% PFA, and L4/5 DRGs and sciatic nerves were harvested, post-fixed, cryoprotected and frozen in OCT compound (Tissue-Tek). For regenerating axon quantification, 12-μm thick longitudinal serial sections of sciatic nerve were blocked with 0.5% BSA/0.1% Triton X-100 (Sigma-Aldrich), and incubated with anti-SCG10 (a marker for regenerating sensory axons; 1:5,000; Novus Biologicals) primary antibodies. The sections were then incubated with secondary antibody conjugated with Alexa Fluor 555 (1:300; Molecular Probes). A series of z-stack images were taken at 20× magnifications using Nikon AXR confocal microscope equipped with a motorized stage and a resonant scanner, stitched, and maximally projected using NIS-Elements software.\nTo quantify regenerating axons, the SCG10 fluorescence intensity was measured at different distal distances away from the crush site using a line scan macro in ImageJ (NIH). A fluorescence intensity profile of SCG10 immunoreactivity was plotted by averaging the SCG10 intensity from 100 neighbouring pixels and normalized to that measured in the crushed site with maximal SCG10 immunoreactivity. For each mouse, at least 3 non-overlapping sections (at least 36 μm apart) were used and averaged from 12-15 sections per genotype or treatment group (n=4-5 per genotype or treatment group)."}, "acetylated tubulin": {"tested_on": "acetylated tubulin", "experiment": "Western blot of acetylated tubulin/total tubulin in sciatic nerve segments 0-6 mm distal to the crush site", "format": "in vivo, mice", "settings": "regenerating axons of sciatic nerves 3 days post-injury", "protocol": "Ipsilateral L4/5 DRG neurons were harvested at various time points following sciatic nerve injury as indicated. Sciatic nerves were harvested 3 days after crush injury and segmented into 0-6 mm distal to the crush site. Each protein sample was pooled from 3 mice. DRG neurons and segmented sciatic nerves were mechanically dissociated with protein lysis buffer, and subjected to measurement of protein concentration using protein BCA assay (Pierce). Protein lysate (30 μg) was separated on 4-12% NuPAGE Tris-Glycine precast gel (Invitrogen). Protein was then transferred onto a PVDF membrane (Bio-Rad) and blocked with 5% non-fat milk (Bio-Rad) in TBS-T. The membrane was incubated with anti-FMN2 (1:500; ProteinTech), anti-phosphorylated HDAC5 (1:500, ThermoFisher), anti-HDAC5 (1:500, Novus Biologicals), anti-acetylated tubulin (1:10,000; Sigma-Aldrich), anti-NeuN (1:500; Millipore), anti-SOX10 (1:500; Abcam), anti-IBA-1 (1:1,000; Wako), anti-GFP (1:1,000; Cell Signaling), and anti-GAPDH antibodies (1:2,000; ProteinTech) as loading controls. The membrane was incubated with secondary antibody conjugated with horseradish peroxidase (1:2,000; Thermo-Fisher). Signals were detected using West Femto Maximum Sensitivity Substrate Kit (Thermo Scientific). […] Band intensities were measured using Image Lab software (Bio-Rad). […]"}, "[2]": {"tested_on": "sensory function of injured hindlimb", "experiment": "Pinprick assay (sensory function recovery) after sciatic nerve crush", "format": "in vivo, mice", "protocol": "(§1) Adult male Fmn2^−/− mice (8-12 weeks old) and their age-matched WT littermates, or adult male C57BL/6 mice (for whole-body X-ray, AAV2/9-Fmn2-shRNA and metaxalone experiments) were trained and habituated one week before the sciatic nerve crush injury. After three independent training sessions (30 minutes per session with two days break), baseline values were taken, and sciatic nerve crush injury were performed one day after the baseline recordings. Function recovery was monitored for 30 days. On day 3 after the sciatic nerve crush, we first perform pinprick assay and followed by motor function assays every other day in a sequential manner (toe spreading, grip strength, and sciatic functional index) with 30 mins apart from each test. Animal behavioural tests were done blinded to the surgery and genotypes.\nMice were placed singly in small wire-mesh cages for 30-minutes habituation, an insect pin (Fine Science Tools) were applied to the lateral plantar surface of the ipsilateral hindlimb from toe to heel. The lateral planar surface was divided into 5 different areas, from the most distal toe (score=5) to the heel (score=1). The mouse was scored for that area if a brisk withdrawal response of hind paw was observed. The mouse was scored 0 if no withdrawal responses were observed after insect pin was applied to all 5 areas. Saphenous innervated area of the same hindlimb was tested as a positive control if there was no positive response from these five areas. Two rounds of pinprick assay were performed (with a 30-minute time interval) in each mouse to confirm the score.\n(§2) To examine the therapeutic potential of metaxalone, adult mice received daily intraperitoneal injection of metaxalone at 10 mg/kg immediately after injury for 21 consecutive days (i.e., metaxalone treatment) or delaying daily intraperitoneal injection of metaxalone at 10 mg/kg to 24 hours post-injury for 20 consecutive days (i.e., delayed metaxalone treatment), and all metaxalone treatments ended on day 21 post-injury. The mice were then subjected to sensory and motor function recovery tests and weekly EMG recordings for 28 days post-injury."}, "[3]": {"tested_on": "motor function of injured hindlimb", "experiment": "Toe spreading reflex (motor function recovery) after sciatic nerve crush", "format": "in vivo, mice", "protocol": "as §1\nTo assess toe spreading reflex following PNI, mice were covered by a piece of cotton, lifted up by the tails, and uncovered their hindlimbs for assessment. Toe spreading reflex was scored as follow: 0 for no spreading, 1 for intermediate spreading with all toes separated for less than 2 seconds, and 2 for full spreading with all toes completely and widely spread, and sustained for at least two seconds. Mice were scored only when a full response was observed on the contralateral side (uninjured hindlimbs). Mice were assessed twice with 30-minute time interval in between.\nas §2"}, "hindlimb muscle strength": {"tested_on": "hindlimb muscle strength", "experiment": "Hindlimb grip strength measurement after sciatic nerve crush", "format": "in vivo, mice", "settings": "from day 11 to 23", "protocol": "as §1\nMuscle strength from hindlimbs were measured using a grip strength meter (BIO-GS3, Bioseb). To measure the grip strength of both hindlimbs, their hindlimbs were positioned to grip a metal T-bar connected to the grip strength meter, while their forelimbs were rested on a plastic bar. The mice were then gently pulled off from the T-bar. The values at which the mouse left the T-bar reflected the grip strength in grams. The average grip strength was taken from at least 5 consecutive grip strength measurements per animal. […]"}, "[4]": {"settings": "cited from earlier work"}, "[5]": {"settings": "10 mg/kg intraperitoneally delayed to 24 hours post-injury"}, "[6]": {"settings": "10 mg/kg intraperitoneally immediately after PNI"}}, "data": [{"compound": "Cc1cc(C)cc(OCC2CNC(=O)O2)c1", "note": "(centres unmarked) [metaxalone]", "values": [{"measurement": "regeneration index at the region over 4.5 mm, delayed treatment", "setting": "[1]; treatment delayed by 24 hours", "result": 0.40}, {"measurement": "regeneration index at the region over 4.5 mm", "setting": "[1]; treatment immediately after injury", "result": 0.34}, {"measurement": "number of SCG10-positive regenerating axons at 4.5 mm distal to the crush injury site", "setting": "[1]; vs vehicle controls", "result": "significant increase"}, {"measurement": "tubulin acetylation", "setting": "acetylated tubulin", "result": "reduction of tubulin acetylation"}, {"measurement": "initial response to pinprick stimuli (reaching score 1), delayed treatment", "setting": "[2]; 10 mg/kg intraperitoneally daily, delayed to 24 hours post-injury, 20 days", "result": 10, "unit": "day post-injury"}, {"measurement": "full sensory pinprick response regained earlier than vehicle controls, delayed treatment", "setting": "[2]; [5]", "result": 2, "unit": "days"}, {"measurement": "full sensory pinprick response regained earlier than vehicle controls", "setting": "[2]; [6]", "result": 4, "unit": "days"}, {"measurement": "initial response to pinprick stimuli (reaching score 1)", "setting": "[2]; 10 mg/kg intraperitoneally once a day immediately after PNI for 21 days", "result": 9, "unit": "day post-injury"}, {"measurement": "additional time vs metaxalone-treated mice to recover 50% and to fully regain toe spreading reflex, delayed treatment", "setting": "[3]; [5]", "result": 1, "unit": "days"}, {"measurement": "time to fully regain toe spreading reflex", "setting": "[3]; [6]", "result": 19, "unit": "days"}, {"measurement": "time to recover 50% of toe spreading reflex (reaching score 1)", "setting": "[3]; [6]", "result": 14, "unit": "days"}, {"measurement": "hindlimb grip strength recovery vs controls", "setting": "hindlimb muscle strength; immediate treatment 10 mg/kg", "result": "significantly higher"}, {"measurement": "hindlimb grip strength recovery vs controls, delayed treatment", "setting": "hindlimb muscle strength; treatment delayed 24 hours, 10 mg/kg", "result": "significantly higher"}, {"measurement": "half-life", "setting": "[4]", "result": 9, "unit": "h"}]}]}
